Experimental data reported in US7060678B2, “Peptides comprising furanoid sugar amino acids for the treatment of cancer” (Dabur Research Foundation, priority 2003, dated 2006).
Read-outs that look alike come from different tables or passages of the source.

Experiments:
[1] = tested on: PA1 (human ovary); test: MTT cytotoxicity assay, PA1 cells; format: cell-based; conditions: human, 48 hours
Description: (§1) The following cell lines were used.

[2] = tested on: HeP-2 (larynx); test: MTT cytotoxicity assay, HeP-2 cells; format: cell-based, human; conditions: human, 48 hours
Description: as §1

[3] = tested on: KB (oral); test: MTT cytotoxicity assay, KB cells; format: cell-based, human; conditions: human, 48 hours
Description: as §1

[4] = tested on: ECV-304 (endothelial); conditions: ECV-304 cells, 48 hours, NA = Not Active
Description: Although sterile phosphate buffered saline was used to prepare each stock solution for the testing described in the following example, other diluents may be used such as buffered saline, isotonic NaCl, Ringer's solution, water, distilled water, polyethylene glycol (neat or in water), Tween in water, dimethylsulfoxide up to 50% in water, propylene glycol (neat or in water), phosphate buffered saline, balanced salt solution, glycerol, and other conventional fluids that are suitable for parentral administration. To obtain a pH in the range of approximately 3.5 to 7.0, for each stock solution, the pH can be adjusted by using 1N HCl for lowering the pH or 1N NaOH for raising the pH, although other buffers such as citrate buffer, phosphate buffer and the like or other conventional agents for adjusting the pH can be used.
The MTT assay is based on the principle of uptake of MTT [3-[4,5-dimethylthiazol-2-yl]-2,5-diphenyl tetrazolium bromide], a tetrazolium salt, by the metabolically active cells where it is metabolized by active mitochondria into a blue colored formazan product which can be read spectrophotometrically. […] The formazan crystals formed inside the cells were dissolved with a detergent comprising of 10% Sodium dodecyl sulfate and 0.01 N HCl and optical density read on a multi-scan ELISA reader. The optical density was directly proportional to the number of proliferating and metabolically active cells. The following cell lines were used. PA1(human ovary), PTC (colon), HeP-2 (larynx), MiaPaCa.2 (human pancreas), KB (oral), ECV-304 (endothelial) and HeP-G2 (liver).

[5] = tested on: HeP-G2 (liver); test: MTT cytotoxicity assay, HeP-G2 cells; format: cell-based, human; conditions: human, 48 hours
Description: as §1

[6] = tested on: PTC (colon); test: MTT cytotoxicity assay, PTC cells; format: cell-based, human; conditions: human, 48 hours
Description: as §1

[7] = tested on: MiaPaCa.2 (human pancreas); test: MTT cytotoxicity assay, MiaPaCa.2 cells; format: cell-based; conditions: human, 48 hours
Description: as §1

| Structure (SMILES) | Percent Cytotoxicity ([1]; 1 nM) [%] | Percent Cytotoxicity ([1]; 10 nM) [%] | Percent Cytotoxicity ([1]; 100 nM) [%] | Percent Cytotoxicity ([1]; 1 μM) [%] | Percent Cytotoxicity ([2]; 1 nM) [%] | Percent Cytotoxicity ([2]; 10 nM) [%] | Percent Cytotoxicity ([2]; 100 nM) [%] | Percent Cytotoxicity ([2]; 1 μM) [%] | Percent Cytotoxicity ([4]; peptide 1 nM) [%] | Percent Cytotoxicity ([4]; peptide 10 nM) [%] | Percent Cytotoxicity ([5]; 1 nM) [%] | Percent Cytotoxicity ([5]; 10 nM) [%] | Percent Cytotoxicity ([5]; 100 nM) [%] | Percent Cytotoxicity ([5]; 1 μM) [%] | other results |
| --- | --- | --- | --- | --- | --- | --- | --- | --- | --- | --- | --- | --- | --- | --- | --- |
| CSCC[C@H](N)C(=O)NCC1CCC(C(=O)N[C@@H](Cc2ccc(O)cc2)C(=O)N[C@@H](CC(C)C)C(=O)O)O1 (stereo partly shown) [SEQ ID NO: 16, Met-Saa3-Tyr-Leu] | 24.0 ± 2.1 | 22.9 ± 2.1 | 19.0 ± 1.0 | 16.8 ± 1.8 | 16.5 ± 1.6 | 19.2 ± 1.6 | 12.6 ± 0.5 | 10.9 ± 1.1 | 9.3 ± 0.6 | 7.9 ± 0.1 | 11.0 ± 1.1 | 12.8 ± 0.7 | 11.4 ± 0.7 | 9.8 ± 0.7 | Percent Cytotoxicity ([3]; 1 nM): 9.3 ± 0.3%; Percent Cytotoxicity ([3]; 10 nM): 9.7 ± 0.4%; Percent Cytotoxicity ([3]; 100 nM): 3.2 ± 0.1% |
| CSCC[C@H](N)C(=O)NC[C@H]1CC[C@@H](C(=O)N[C@@H](Cc2ccc(O)cc2)C(=O)N[C@@H](CC(C)C)C(=O)O)O1 [SEQ ID NO: 17, Met-Saa4-Tyr-Leu] | 18.2 ± 1.1 | 17.8 ± 1.7 | 15.9 ± 0.6 | 6.0 ± 0.7 | 33.6 ± 2.7 | 31.7 ± 3.2 | 29.0 ± 0.4 | 27.9 ± 2.9 | 16.4 ± 1.9 | 13.9 ± 0.5 | 12.8 ± 0.6 | 17.9 ± 1.4 | 20.9 ± 1.4 | 12.0 ± 0.7 | Percent Cytotoxicity ([6]; 1 nM): 12.0 ± 1.7%; Percent Cytotoxicity ([6]; 10 nM): 11.9 ± 1.4%; Percent Cytotoxicity ([6]; 100 nM): 10.4 ± 0.6%; Percent Cytotoxicity ([6]; 1 μM): 8.4 ± 1.0%; Percent Cytotoxicity ([4]; peptide 100 nM): 11.9 ± 1.1%; Percent Cytotoxicity ([7]; 1 nM): 23.0 ± 2.1%; Percent Cytotoxicity ([7]; 10 nM): 21.8 ± 1.9%; Percent Cytotoxicity ([7]; 100 nM): 17.0 ± 0.9%; Percent Cytotoxicity ([7]; 1 μM): 16.0 ± 1.4% |
